Counter-ions that a name gives are not always drawn.
Columns and labels:
[1] = system: phenylquinone-induced writhing in mice; experiment: Anti-nociceptive activity in phenylquinone-induced writhing test in mice; type: in vivo, mouse (male NMRI); conditions: Mus musculus, iv, 10 min; i.v., phenylquinone i.p. 10 min after compound, writhing counted 5-20 min after phenylquinone; 10 animals per dose; 95% confidence range in parentheses
Experimental: The anti-nociceptive effectiveness was tested in phenylquinone-induced writhing in mice, modified by I. C.Hendershot, J. Forsaith, J. Pharmacol. Exp. Ther. 125, 237-240 (1959). Here, male NMRI mice with a weight of 25-30 g were used. 10 min after intravenous administration of a compound according to the invention, 0.3 ml/mouse of a 0.02% strength aqueous solution of phenylquinone was administered intraperitoneally to groups of 10 animals per substance dose (phenylbenzoquinone, Sigma, Deisenhofen; solution prepared by adding 5% ethanol and storing in a water bath at 45° C.). The animals were placed individually in observation cages. Using a push button counter,the number of pain-induced stretching movements (so-called writhing reactions=straightening the body while stretching out the back extremities) was counted 5-20 min after administration of the phenylquinone. From the dose-dependent decrease in writhing reactions as compared with groups of animals tested in parallel to which no compounds according to the invention had been administered, the ED50 values for the writhing reaction were calculated using regression analysis (evaluation programme Martens EDV service, Eckental).

δ-opiate receptor = target: T1, δ-opiate receptor (Rattus norvegicus, UniProt P33533); experiment: δ-opiate receptor bonding test ((3H)-2-D-ala-deltorphin II displacement); type: binding, rat (male Wistar); conditions: rat brain membrane homogenate, 1 nmol/l (3H)-2-D-ala-deltorphin II, 90 min at 37° C., pH 7.4; mean ± standard deviation of 3 independent trials
T1 construct: performed in brain membrane homogenates; from tissue; host or cells: rat brain without cerebellum, pons and medulla oblongata, male Wistar rats (membrane homogenate)
T1 sequence (P33533 whole entry): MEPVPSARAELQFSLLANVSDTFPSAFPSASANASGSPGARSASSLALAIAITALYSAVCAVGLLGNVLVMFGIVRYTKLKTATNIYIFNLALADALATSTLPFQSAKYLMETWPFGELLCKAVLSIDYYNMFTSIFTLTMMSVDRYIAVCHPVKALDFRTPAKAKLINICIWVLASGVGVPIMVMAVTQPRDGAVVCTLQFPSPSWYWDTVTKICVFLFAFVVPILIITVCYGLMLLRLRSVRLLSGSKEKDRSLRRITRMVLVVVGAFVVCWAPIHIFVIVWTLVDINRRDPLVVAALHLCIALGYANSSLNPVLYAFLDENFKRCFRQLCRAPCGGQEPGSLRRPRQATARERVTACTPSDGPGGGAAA
Experimental: Tests on determining the affinity of compounds of the formula I according to the invention for the δ-opiate receptor were performed in brain membrane homogenates (homogenate from rat brain without the cerebellum, pons and medulla oblongata from male Wistar rats). In this case, freshly prepared rat brain was homogenised each time, cooled by ice, in 50 mmol/l of tris-HCl (tris-(hydroxymethyl)-aminomethane hydrochloride) (pH 7.4) and centrifuged for 10 min at 5,000 g and 4° C. After decanting and discarding the supernatant liquid, the membrane sediment was again taken up in 50 mmol/l of tris-HCl (pH 7.4) and homogenised and the homogenate was then centrifuged for 20 min at 20,000 g and 4° C. This wash stage was repeated once more. Then the supernatant liquid was decanted and the membrane sediment was homogenised in cold 50 mmol/l tris-HCl, 20% glycerol (w:v), 0.01% bacitracin (w/v) (pH 7.4) and frozen in portions until tested. For the receptor bonding tests, the portions were thawed out and diluted 1:10 with the bonding test buffer. A 50 mmol/l tris-HCl, 5 mmol/l MgCl2 (pH 7.4) supplemented with 0.1% (w:v) of bovine serum albumin was used as buffer, and 1 nmol/l of (^3 H)-2-D-ala-deltorphin II was used as a radioactive ligand in the bonding test. The proportion of non-specific bonding was determined in the presence of […] of naloxon. In further batches, the compounds according to the invention were added in a number of concentrations and the displacement of the radioactive ligand from its specific bond was determined. Three identical batches were incubated for 90 min at 37° C. and then harvested in order to determine the radioactive ligand bonded to the membrane homogenate by means of filtration through a glass fibre filter (GF/B). The radioactivity of the glass fibre filter discs was measured in a beta-counter by adding a scintillator. The affinity of compounds according to the invention for the δ-opiate receptor was calculated as IC50 in accordance with the law of mass action using non-linear regression. The K values in table 1 are given as the average value plus or minus the standard deviation of 3 quite independent trials.

| SMILES | ED50 [1] | Ki (δ-opiate receptor) |
| --- | --- | --- |
| CN(C)CC1=C(c2cccc(O)c2)CC(c2cccc(O)c2)CCC1.Cl (stereo not drawn) [Example 1, 3-[2-dimethylaminomethyl-6-(3-hydroxyphenyl)-cyclohept-1-enyl]-phenol hydrochloride] | 3.31 mg/kg | 1.4 ± 0.8 nM |
| CN(C)CC1=C(c2cccc(O)c2)CC(c2ccc(Cl)cc2)CCC1.Cl (stereo not drawn) [Example 2a, 3-[6-(4-chlorophenyl)-2-dimethylaminomethyl-cyclohept-1-enyl]-phenol hydrochloride] | 7.4 mg/kg | 30.3 ± 4.7 nM |
| CN(C)CC1=C(c2cccc(O)c2)CC(c2ccccc2)CCC1.Cl (stereo not drawn) [Example 2b, 3-(2-dimethylaminomethyl-6-phenyl-cyclohept-1-enyl)-phenol hydrochloride] | 4.48 mg/kg | 3.8 ± 0.2 nM |
| CN(C)CC1=C(c2cccc(O)c2)CC(c2cccc3ccccc23)CCC1.Cl (stereo not drawn) [Example 2c, 3-(2-dimethylaminomethyl-6-naphth-1-yl-cyclohept-1-enyl)-phenol hydrochloride] | 5.29 mg/kg | 24.7 ± 2.4 nM |
| CN(C)CC1=C(c2cccc(O)c2)CC(c2ccc3ccccc3c2)CCC1.Cl (stereo not drawn) [Example 2d, 3-(2-dimethylaminomethyl-6-naphth-2-yl-cyclohept-1-enyl]-phenol hydrochloride] | 7.56 mg/kg | 31.5 ± 5.9 nM |
| CN(C)CC1=C(c2cccc(O)c2)CC(c2ccc(O)cc2)CCC1.Cl (stereo not drawn) [Example 2e, 3-[2-dimethylaminomethyl-6-(4-hydroxyphenyl)-cyclohept-1-enyl]-phenol hydrochloride] | 2.25 mg/kg | 15.2 ± 4.3 nM |
| Cc1cccc(C2CCCC(CN(C)C)=C(c3cccc(O)c3)C2)c1 (stereo not drawn) [Example 2f, 3-(2-dimethylaminomethyl-6-m-toluyl-cyclohept-1-enyl]-phenol hydrochloride] |  | 3.2 ± 0.8 nM |
| CN(C)CC1=C(c2cccc(O)c2)CC(c2cccc(C(C)(C)C)c2)CCC1 (stereo not drawn) [Example 2g, 3-[6-(3-tert-butyl-phenyl)-2-dimethylaminomethyl-cyclohept-1-enyl]-phenol hydrochloride] |  | 17.5 ± 5.2 nM |
| CN(C)CC1=C(c2cccc(O)c2)CC(c2ccc3cc(O)ccc3c2)CCC1 (stereo not drawn) [Example 2h, hydrochloride] | 6.22 mg/kg | 19.4 ± 4.7 nM |
| CN(C)CC1=C(c2cccc(O)c2)CC(c2ccc(O)c(F)c2)CCC1.Cl (stereo not drawn) [Example 2i, 3-[2-dimethylaminomethyl-6-(3-fluoro-4-hydroxyphenyl)-cyclohept-1-enyl]-phenol hydrochloride] | 0.89 mg/kg | 14.6 ± 2.2 nM |
| CN(C)CC1=C(c2cccc(O)c2)CC(c2ccccc2O)CCC1 (stereo not drawn) [Example 2j, 3-[2-dimethylaminomethyl-6-(2-hydroxyphenyl)-cyclohept-1-enyl]-phenol hydrochloride] |  | 24.7 ± 3.1 nM |
| CN(C)CC1=C(c2cccc(O)c2)CC(C2CCCCC2)CCC1 (stereo not drawn) [Example 2k, 3-(6-cyclohexyl-2-dimethylaminomethyl-cyclohept-1-enyl)-phenol hydrochloride] |  | 10.3 ± 2.2 nM |
| CN(C)CC1=C(c2cccc(O)c2)CC(CC2CCCCC2)CCC1 (stereo not drawn) [Example 2l, 3-(6-cyclohexylmethyl-2-dimethylaminomethyl-cyclohept-1-enyl)-phenol hydrochloride] |  | 28.6 ± 5.8 nM |
| CN(C)CC1=C(c2cccc(O)c2)CC(Cc2ccccc2)CCC1 (stereo not drawn) [Example 2m, 3-(6-benzyl-2-dimethylaminomethyl-cyclohept-1-enyl)-phenol hydrochloride] |  | 10.2 ± 1 nM |
| CN(C)CC1=C(c2cccc(O)c2)CC(Cc2cccc(O)c2)CCC1 (stereo not drawn) [Example 2n, 3-[2-dimethylaminomethyl)-6-(3-hydroxybenzyl)-cyclohept-1-enyl]-phenol hydrochloride] |  | 7.4 ± 2.2 nM |
| CN(C)CC1=C(c2cccc(O)c2)CC(CCc2ccccc2)CCC1 (stereo not drawn) [Example 2o, 3-(2-dimethylaminomethyl-6-phenethyl-cyclohept-1-enyl)-phenol hydrochloride] |  | 30.6 ± 10.5 nM |
| Cc1cc(C2CCCC(CN(C)C)=C(c3cccc(O)c3)C2)cc(C)c1O (stereo not drawn) [Example 2p, 3-[2-dimethylaminomethyl)-6-(3,5-dimethyl-4-hydroxyphenyl)-cyclohept-1-enyl]-phenol hydrochloride] |  | 2.5 nM |
| CN(CCc1ccccc1)CC1=C(c2cccc(O)c2)CC(c2ccccc2)CCC1.Cl (stereo not drawn) [Example 3, 3-{2-[(methylphenethylamino)-methyl]-6-phenyl-cyclohept-1-enyl}-phenol hydrochloride] | 3.4 mg/kg | 8.3 ± 3.3 nM |
